This is an account of results in PMC11901381 (Future Medicinal Chemistry, 2025).

SMILES strings stand for the structures. Where only a bound is given, the exact number is not on record here.

One data set can be described thus: General. Format: cell-based. Conditions: African green monkey, Vero cells (monkey kidney epithelial cells).
The nature of data set [1]: Animal cytotoxicity, CCK-8 assay. The data set is classed as cell-based, bovine. Conditions: bovine, MDBK (Madin-Darby bovine kidney) cells.
For data set [2], the system named is L. donovani strain 9515 promastigotes. Briefly: Antipromastigote resazurin assay. Format: cell-based, Leishmania donovani. Conditions: for IC50: Leishmania donovani, read-out: Antipromastigote activity IC50; for AG (activity gain): IC50 (1)/IC50 (compd.), L. donovani promastigotes; for SI1: SI1 = IC50 Vero/IC50 promastigote, L. donovani.
For data set [3], the system named is L. major strain NIH S promastigotes. The data set can be described thus: Antipromastigote resazurin assay. Format: cell-based, Leishmania major. Conditions: for IC50: Leishmania major, read-out: Antipromastigote activity IC50; for AG (activity gain): IC50 (1)/IC50 (compd.), L. major promastigotes; for SI4: SI4 = IC50 Vero/IC50 promastigote, L. major.
The test system of data set [4] is T. brucei brucei strain GUTat3.1. Briefly: Antitrypanosomal assay. The data set is classed as cell-based, Trypanosoma brucei brucei. Conditions: Trypanosoma brucei, read-out: Antitrypomastigote activity IC50 ± SD Tbb GuTat3.1.
Data set [5] is described as follows: Host cell toxicity, resazurin assay. Format: cell-based. Conditions: human.
Data set [6] has as its system L. major strain NIH S intramacrophage amastigotes. Briefly: Intramacrophage antileishmanial resazurin assay. Format: cell-based, Leishmania major. Conditions: for SI5: SI5 = IC50 Vero/static IC50 amastigote; for SI5 / SI6 / SpI3 / SpI4: L. major; for SI6: SI6 = IC50 Vero/cidal IC50 amastigote; for SpI3: SpI3 = IC50 promastigote/static IC50 amastigote; for SpI4: SpI4 = IC50 promastigote/cidal IC50 amastigote; for Static anti-amastigote activity IC50: L. major NIH S amastigotes in THP-1 macrophages, 24 hours after lysis.

The subject of data set [7] is L. donovani strain 9515 intramacrophage amastigotes. The data set can be described thus: Intramacrophage antileishmanial resazurin assay. The data set is classed as cell-based, Leishmania donovani. Conditions: for SI2: SI2 = IC50 Vero/static IC50 amastigote; for SI2 / SI3 / SpI1 / SpI2: L. donovani; for SI3: SI3 = IC50 Vero/cidal IC50 amastigote; for SpI1: SpI1 = IC50 promastigote/static IC50 amastigote; for SpI2: SpI2 = IC50 promastigote/cidal IC50 amastigote; for Static anti-amastigote activity IC50: L. donovani 9515 amastigotes in THP-1 macrophages, 24 hours after lysis.

Data set [8] can be described thus: Solubility observed during sample preparation and screening. The data set is classed as physicochemical.

On to `O=Cc1c[nH]c2ccc([N+](=O)[O-])cc12` [2a, 5-Nitro-1H-indole-3-carbaldehyde], for which the IC50 in the data set “General” is greater than 100 µM; in data set [1], greater than 526 µM; in data set [2], greater than 100 µM; in [3], greater than 100 µM; in data set [4] it was greater than 131 µM.
As to `C#CCn1cc(C=O)c2cc([N+](=O)[O-])ccc21` [2b, 5-Nitro-1-(prop-2-yn-1-yl)-1 H-indole-3-carbaldehyde], the half-inhibitory concentration (IC50) in “General” is greater than 100 µM; in [5], 91.1 ± 12.6 µM; in data set [1], greater than 438 µM; in [2], greater than 100 µM; in data set [3], greater than 100 µM; in data set [4], greater than 110 µM. The compound also registered an SI5 in [6] of 41. In data set [6], this compound registered an SI6 of 41. In data set [6], this compound displayed a SpI3 of 41. This compound also displayed a SpI4 in [6] of 42.
Take `O=Cc1cn(Cc2ccccc2)c2ccc([N+](=O)[O-])cc12` [2c, 1-Benzyl-5-nitro-1 H-indole-3-carbaldehyde]: the IC50 was greater than 100 µM in the data set “General”, greater than 100 µM in [5], greater than 357 µM in data set [1] and greater than 89 µM in data set [4]. Further, the SI2 in data set [7] is given as 28. Also, the SI3 in [7] came out at 28. Moreover, the SpI1 in data set [7] was found to be 28. The compound further had a SpI2 in data set [7] of 28.
Take `Cc1ccc(Cn2cc(C=O)c3cc([N+](=O)[O-])ccc32)cc1` [2d, 1-(4-Methylbenzyl)-5-nitro-1 H-indole-3-carbaldehyde]: the IC50 was 96.9 ± 5.35 µM in “General”, greater than 100 µM in data set [5] and greater than 85 µM in [4]. Further, the “AG (activity gain)” value in data set [2] worked out at 61; in data set [3], 32.3. Besides, the SI1 in [2] is listed as 117. In [3], this compound gave an SI4 of 68.
Take `O=Cc1cn(Cc2cccc(Cl)c2)c2ccc([N+](=O)[O-])cc12` [2f, 1-(3-Chlorobenzyl)-5-nitro-1 H-indole-3-carbaldehyde]: 99.91 ± 0.13 µM corresponded to half-maximal inhibition in “General” (IC50). In addition, the half-inhibitory concentration (IC50) in data set [5] is greater than 100 µM. In addition, in data set [3], the “AG (activity gain)” value was determined as 5.3 and the SI4 is 11. Further, in [6], the SI5 was found to be 10, the SI6 is 7 and the SpI4 was 1. Besides, the IC50 in [4] was greater than 79 µM.
Regarding `Cc1ccc(Cn2cc(/C=C3\SC(=S)NC3=O)c3cc([N+](=O)[O-])ccc32)cc1` [3d, (Z)-5-{[1-(4-Methylbenzyl)-5-nitro-1 H-indol-3-yl]methylene}-2-thioxothiazolidin-4-one], half-maximal inhibition in the data set “General” (IC50) was put at 98.2 ± 1.62 µM. Also, the concentration for half-maximal inhibition (IC50) in data set [5] was greater than 100 µM. Further, in data set [2], the “AG (activity gain)” value came to 0.6, the IC50 stood at 87.4 ± 17.8 µM and the SI1 is given as 1. In data set [7], this compound displayed an SI2 of 19, an SI3 of 17, a SpI1 of 17 and a SpI2 of 15. Also, the 50% inhibitory concentration (IC50) in data set [3] is greater than 100 µM. In data set [6], this compound displayed an SI5 of 78, a SpI3 of 79 and a SpI4 of 107. In addition, the IC50 in data set [4] is greater than 70 µM.
In the data set “General”, `O=C1NC(=S)S/C1=C\c1cn(Cc2cccc(Cl)c2)c2ccc([N+](=O)[O-])cc12` [3f, (Z)-5-{[1-(3-Chlorobenzyl)-5-nitro-1 H-indol-3-yl]methylene}-2-thioxothiazolidin-4-one] registered an IC50 of 22.2 ± 1.65 µM. In [5], the IC50 was greater than 100 µM. In [2], the “AG (activity gain)” value came out at 2.6, the half-inhibitory concentration (IC50) came to 19.1 ± 3.7 µM and the SI1 is listed as 1. In addition, in data set [7], the SI2 stood at 12, the SI3 came out at 11, the SpI1 was 10 and the SpI2 is listed as 10. Moreover, in data set [3], the “AG (activity gain)” value is 2.6, the half-maximal inhibitory concentration (IC50) was found to be 17.7 ± 0.9 µM and the SI4 turned out to be 1. Besides, in data set [6], the SI5 was 5, the SI6 was determined as 8, the SpI3 turned out to be 4 and the SpI4 was found to be 7. In addition, in data set [4], the IC50 is greater than 61 µM. For the same compound, the “Solubility in 100% DMSO” value in [8] (100% dimethyl sulfoxide used for sample preparation) was “poor solubility”.
As for `O=C1CSC(=S)N1/N=C/c1c[nH]c2ccc([N+](=O)[O-])cc12` [4a, (E)-3-{[(5-Nitro-1 H-indol-3-yl)methylene]amino}-2-thioxothiazolidin-4-one], the IC50 in the data set “General” is greater than 100 µM; in [1] it was 66.8 ± 9.55 µM; in [2], greater than 100 µM; in data set [3], greater than 100 µM; in data set [4], greater than 61 µM.
On to `C#CCn1cc(/C=N/N2C(=O)CSC2=S)c2cc([N+](=O)[O-])ccc21` [4b, (E)-3-({[5-Nitro-1-(prop-2-yn-1-yl)-1 H-indol-3-yl]methylene}amino)-2-thioxothiazolidin-4-one], for which the IC50 is greater than 100 µM in “General”; greater than 100 µM in [5]; greater than 100 µM in [2]; greater than 100 µM in [3]; greater than 59 µM in [4]. Further, the SI5 in data set [6] was 11. In data set [6], the SI6 is recorded as 12. Besides, in [6], the SpI3 worked out at 11. Also, the SpI4 in data set [6] is recorded as 12. Further, in [8], the “Solubility in aqueous screening medium” value is “poor solubility”.
`O=C1CSC(=S)N1/N=C/c1cn(Cc2ccccc2)c2ccc([N+](=O)[O-])cc12` [4c, (E)-3-{[(1-Benzyl-5-nitro-1 H-indol-3-yl)methylene]amino}-2-thioxothiazolidin-4-one]: the IC50 in the data set “General” was greater than 100 µM; in data set [5], greater than 100 µM; in [2] it was greater than 100 µM; in data set [3], greater than 100 µM; in data set [4], greater than 60 µM. In data set [6], this compound had an SI5 of 38. In addition, in data set [6], the SI6 is on record as 41. In addition, in [6], the SpI3 is reported as 38. The compound further gave a SpI4 in [6] of 41.
Take `Cc1ccc(Cn2cc(/C=N/N3C(=O)CSC3=S)c3cc([N+](=O)[O-])ccc32)cc1` [4d, (E)-3-({[1-(4-Methylbenzyl)-5-nitro-1H -indol-3-yl]methylene}amino)-2-thioxothiazolidin-4-one]: the IC50 in “General” is greater than 100 µM; in data set [2], greater than 100 µM; in data set [3] it was 70.9 ± 14.3 µM; in data set [4], greater than 58 µM. Further, the “Static anti-amastigote activity IC50” value in [7] and in [6] was “inactive” in each case. Also, in [3], the “AG (activity gain)” value worked out at 0.7. In data set [3], this compound had an SI4 of 1. Besides, in data set [8], the “Solubility in aqueous screening medium” value is “poor solubility”.
With `O=C1CSC(=S)N1/N=C/c1cn(Cc2cccc(Cl)c2)c2ccc([N+](=O)[O-])cc12` [4f, (E)-3-({[1-(3-Chlorobenzyl)-5-nitro-1 H-indol-3-yl]methylene}amino)-2-thioxothiazolidin-4-one], the half-maximal inhibitory concentration (IC50) was 58.8 ± 13.2 µM in “General”, greater than 100 µM in data set [2], greater than 100 µM in data set [3] and greater than 56 µM in [4].
On to `C[C@@H]1[C@H](O)[C@@H](C)/C=C/C=C/C=C/C=C/C=C/C=C/C=C/[C@H](O[C@@H]2O[C@H](C)[C@@H](O)[C@H](N)[C@@H]2O)C[C@@H]2O[C@](O)(C[C@@H](O)C[C@@H](O)[C@H](O)CC[C@@H](O)C[C@@H](O)CC(=O)O[C@H]1C)C[C@H](O)[C@H]2C(=O)O` [AMB, amphotericin B, reference compound], for which the IC50 in data set [2] turned out to be 0.02 ± 0.009 µM. In data set [7], this compound showed a SpI1 of 0.40 and a SpI2 of 0.04. In data set [6], this compound had a SpI3 of 0.1 and a SpI4 of 0.2.
In the case of `CC[C@H]1CN2CCc3cc(OC)c(OC)cc3[C@@H]2C[C@@H]1C[C@H]1NCCc2cc(OC)c(OC)cc21` [Em, emetine, reference compound], the IC50 in the data set “General” was 0.09 ± 0.009 µM.
With `Cc1ccc(C(=O)Nc2ccc(S(=O)(=O)O)c3cc(S(=O)(=O)O)cc(S(=O)(=O)O)c23)cc1NC(=O)c1cccc(NC(=O)Nc2cccc(C(=O)Nc3cc(C(=O)Nc4ccc(S(=O)(=O)O)c5cc(S(=O)(=O)O)cc(S(=O)(=O)O)c45)ccc3C)c2)c1` [Suramin, suramin, reference compound], the 50% inhibitory concentration (IC50) is greater than 70 µM in [1] and 0.07 ± 0.02 µM in data set [4].
With `O=[N+]([O-])c1ccc2[nH]ccc2c1` [compound 1, 5-nitroindole], the IC50 in “General” is 79.5 ± 14.9 µM; in data set [5] it was greater than 100 µM; in data set [2], 50.3 ± 1.36 µM; in data set [3] it was 45.8 ± 5.47 µM; in data set [4], greater than 154 µM. Also, the “AG (activity gain)” value in data set [2] and in [3] was 1 throughout. The same compound showed an SI1 in data set [2] of 2. In addition, the “Static anti-amastigote activity IC50” value in data set [7] and in data set [6] was “inactive” throughout. The compound further registered an SI4 in [3] of 2.
